In US11813270B2, “Nitric oxide-releasing antibacterial compounds, formulations, and methods pertaining thereto” (KNOW BIO, LLC, priority 2020, dated 2023):

What was measured:
[1] = tested on: Mycobacterium abscessus; assay: MIC/MBC assay (CLSI method); assay type: cell-based; details: unit not given
[2] = tested on: Pseudomonas aeruginosa; assay: MIC/MBC assay (CLSI method); assay type: cell-based; details: combined composition of β-cyclodextrin and MTDD

C[C@@H]1CCC[C@H](C)N1[N+]([O-])=N[O-].[Na+] [cis-DMP/NO]
NO Load (unit not given): 6.9 | MBC ([1]; M. abscessus N0010, clinical): 4 | MIC ([1]; M. abscessus N0010, clinical): 1 | MBC ([1]; M. abscessus N0016, clinical): 4 | MIC ([1]; M. abscessus N0016, clinical): 2 | MBC ([1]; M. abscessus N0017, clinical): 4 | MIC ([1]; M. abscessus N0017, clinical): 2 | MBC ([1]; M. abscessus N0018, clinical): 4 | MIC ([1]; M. abscessus N0018, clinical): 1 | MBC ([1]; M. abscessus N0019, clinical): 4 | MIC ([1]; M. abscessus N0019, clinical): 2 | MBC ([1]; M. abscessus N0020, clinical): 2 | MIC ([1]; M. abscessus N0020, clinical): 1 | MBC ([1]; M. abscessus N0046): 4 | MIC ([1]; M. abscessus N0046): 2

OC[C@H]1O[C@@H]2O[C@H]3[C@H](O)[C@@H](O)[C@@H](O[C@H]4[C@H](O)[C@@H](O)[C@@H](O[C@H]5[C@H](O)[C@@H](O)[C@@H](O[C@H]6[C@H](O)[C@@H](O)[C@@H](O[C@H]7[C@H](O)[C@@H](O)[C@@H](O[C@H]8[C@H](O)[C@@H](O)[C@@H](O[C@H]1[C@H](O)[C@H]2O)O[C@@H]8CO)O[C@@H]7CO)O[C@@H]6CO)O[C@@H]5CO)O[C@@H]4CO)O[C@@H]3CO [0% MTDD, β-cyclodextrin]
NO-loading (combined composition of β-cyclodextrin and MTDD): 0.0 µmol/mg | MIC against P. aeruginosa [2]: >6250 µg/mL
